Results published in patent US7820714B2, “Siglec inhibitors” (priority 2001, dated 2010).
Where two headings read alike, the source gives them in different places.

Legend:
Siglec-1 (sialoadhesin) = Siglec-1 (sialoadhesin) (Mus musculus, UniProt Q62230); assay: Hapten inhibition assay, Siglec-1 (sialoadhesin); assay type: binding; conditions: for Siglec-1 (sialoadhesin) rIP: quotient IC50 reference compound / IC50 compound; for Siglec-1 (sialoadhesin) percentage in parentheses below the IC50 bound: at the concentration of the IC50 bound, meaning not defined in the patent
Description: (§2) Preferably, the inhibition can be determined by a Hapten inhibition test. […] After overnight incubation at 4° C. the unbound complexes are removed by washing the cells and the bound radioactivity is determined. From the data obtained in this way, the concentrations are found which lead to 50% inhibition of the binding (IC50 values) (5, 6). Specially preferred during the Hapten inhibition test was 10 μl of the complex solution with an activity of 10^3 Bq ^125I mixed with the same volume of a solution of the substance to be investigated (concentrated three times) and incubated at 4° C. for one hour. Then followed the addition of 10 μl of a suspension of target cells, preferably 0.25 to 0.5% of human erythrocytes and incubation overnight at 4° C. The unbound radioactivity is removed by washing the cells five times with 200 μl of washing buffer, preferably phosphate-buffered saline with 0.1% (W/V) bovine serum albumin, and the cell-bound activity is determined with a γ-counter. […] The inhibition is determined in that the value without inhibitor is set to 0% and that with the sialidase-treated cells is set equal to 100%.
(§3) The IC50 value is the siglec inhibitor concentration which leads to 50% inhibition in the binding in the Hapten inhibition assay.

Siglec-2 (human CD22) = target: T1, Siglec-2 (human CD22) (Homo sapiens, UniProt P20273); assay: Hapten inhibition assay, Siglec-2 (human CD22); assay type: binding; conditions: for Siglec-2 (human CD22) rIP: quotient IC50 reference compound / IC50 compound
T1 sequence (P20273 20-138 limits assumed): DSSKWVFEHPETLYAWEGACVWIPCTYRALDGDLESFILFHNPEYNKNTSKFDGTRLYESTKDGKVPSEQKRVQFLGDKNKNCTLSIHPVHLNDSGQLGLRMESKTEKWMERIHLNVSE
Description: as §2, §3

Siglec-2 (murine CD22) = target: T2, Siglec-2 (murine CD22) (Mus musculus, UniProt P35329); assay: Hapten inhibition assay, Siglec-2 (murine CD22); assay type: binding; conditions: for Siglec-2 (murine CD22) rIP: quotient IC50 reference compound / IC50 compound
T2 sequence (P35329 22-148 limits assumed): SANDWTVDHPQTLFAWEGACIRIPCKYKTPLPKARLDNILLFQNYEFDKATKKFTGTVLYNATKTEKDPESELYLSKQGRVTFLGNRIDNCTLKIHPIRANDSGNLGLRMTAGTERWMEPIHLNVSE
Description: as §2, §3

Daudi cells = assay: Ca2+ concentration in Daudi cells stimulated with anti-IgM; assay type: cell-based; conditions: Daudi cells stimulated with anti-IgM in the presence of the compound
Description: (§1) The compound BPC-Neu5Ac (shown below) was used according to known methods in test series for the investigation of the selectivity and the activity. […] This impairment with regard to the binding of ligands leads to an incomplete activation of the intracellular inhibitor domain of CD22.

[1] = system: primary B-lymphocytes from human blood; assay: Ca2+ concentration in primary B-lymphocytes stimulated with anti-IgM; assay type: cell-based
Description: as §1

Siglec-4a (MAG) = target: T3, Siglec-4a (MAG) (UniProt P20917); assay: Hapten inhibition assay, Siglec-4a (MAG); conditions: for Siglec-4a (MAG) rIP: quotient IC50 reference compound / IC50 compound; for IC50: read-out: Siglec-4a (MAG) IC50
T3 sequence (P20917 1-627): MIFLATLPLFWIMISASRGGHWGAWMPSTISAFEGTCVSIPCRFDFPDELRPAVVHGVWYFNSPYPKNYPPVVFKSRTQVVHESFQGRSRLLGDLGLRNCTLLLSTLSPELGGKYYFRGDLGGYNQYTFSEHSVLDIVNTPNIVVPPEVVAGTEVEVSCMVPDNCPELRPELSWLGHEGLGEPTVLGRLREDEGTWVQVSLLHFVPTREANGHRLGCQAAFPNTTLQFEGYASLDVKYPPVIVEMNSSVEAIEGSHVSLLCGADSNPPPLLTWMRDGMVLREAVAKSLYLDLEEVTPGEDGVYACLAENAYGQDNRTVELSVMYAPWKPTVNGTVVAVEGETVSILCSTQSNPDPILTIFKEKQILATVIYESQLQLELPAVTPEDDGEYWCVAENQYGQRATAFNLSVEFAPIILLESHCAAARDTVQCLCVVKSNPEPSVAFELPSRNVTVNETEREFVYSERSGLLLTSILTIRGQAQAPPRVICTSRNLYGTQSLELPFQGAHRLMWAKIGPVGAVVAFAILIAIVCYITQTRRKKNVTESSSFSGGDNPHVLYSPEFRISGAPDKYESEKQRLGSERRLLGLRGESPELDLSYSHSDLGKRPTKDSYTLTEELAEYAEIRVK
Description: Preferably, the inhibition can be determined by a Hapten inhibition test. […] After overnight incubation at 4° C. the unbound complexes are removed by washing the cells and the bound radioactivity is determined. […] Then followed the addition of 10 μl of a suspension of target cells, preferably 0.25 to 0.5% of human erythrocytes and incubation overnight at 4° C. The unbound radioactivity is removed by washing the cells five times with 200 μl of washing buffer, preferably phosphate-buffered saline with 0.1% (W/V) bovine serum albumin, and the cell-bound activity is determined with a γ-counter. […] The inhibition is determined in that the value without inhibitor is set to 0% and that with the sialidase-treated cells is set equal to 100%.

[2] = at the concentration of the IC50 bound, meaning not defined in the patent

Siglec-1 (sialoadhesin), sequence (Q62230 20-136 limits assumed): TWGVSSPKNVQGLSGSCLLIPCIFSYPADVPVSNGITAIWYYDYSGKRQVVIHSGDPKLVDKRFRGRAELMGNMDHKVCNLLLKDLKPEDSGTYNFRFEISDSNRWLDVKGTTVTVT

| Siglec-1 (sialoadhesin) rIP (Siglec-1 (sialoadhesin)) | IC50 (Siglec-1 (sialoadhesin); unit inferred) [mM] | Siglec-2 (human CD22) rIP (Siglec-2 (human CD22)) | binds stronger to siglec-2 than the reference compound (Siglec-2 (human CD22); relative to 2-alpha-methyl-5-N-acetyl-neuraminic acid) | IC50 (Siglec-2 (human CD22); unit inferred) [mM] | Siglec-2 (murine CD22) rIP (Siglec-2 (murine CD22)) | IC50 (Siglec-2 (murine CD22); unit inferred) [mM] | Siglec-4a (MAG) rIP (Siglec-4a (MAG)) | IC50 (Siglec-4a (MAG); unit inferred) [mM] | Siglec-1 (sialoadhesin) percentage in parentheses below the IC50 bound (Siglec-1 (sialoadhesin)) | IC50 (Siglec-1 (sialoadhesin); bounds given in mM) [mM] | Siglec-2 (human CD22) percentage in parentheses below the IC50 bound (Siglec-2 (human CD22); [2]) | IC50 (Siglec-2 (human CD22); bounds given in mM) [mM] | Siglec-2 (murine CD22) percentage in parentheses below the IC50 bound (Siglec-2 (murine CD22); [2]) | IC50 (Siglec-2 (murine CD22); bounds given in mM) [mM] | Siglec-4a (MAG) percentage in parentheses below the IC50 bound (Siglec-4a (MAG); [2]) | IC50 (Siglec-4a (MAG); bounds given in mM) [mM] | Compound | selectivity of affinity for hCD22 (Siglec-2 (human CD22); in words) | Ca2+ concentration (Daudi cells) | Ca2+ concentration [1] |
| --- | --- | --- | --- | --- | --- | --- | --- | --- | --- | --- | --- | --- | --- | --- | --- | --- | --- | --- | --- | --- |
| 13 | 0.052 | 150 | approximately 150 times | 0.004 | 5.0 | 1.22 | 218 | 0.022 | – | – | – | – | – | – | – | – | CO[C@]1(C(=O)O)CC(O)[C@@H](NC(C)=O)C([C@@H](O)[C@H](O)CNC(=O)c2ccc(-c3ccccc3)cc2)O1 (stereo partly drawn) [Methyl-α-9-N-(biphenyl-4-carbonyl)-amino-9-desoxy-Neu5Ac] | very remarkable selective affinity for hCD22 | rise in the Ca^2+ concentration | clearly increased Ca^2+ concentration |
| <0.8 | – | <<2 | – | – | <1.5 | – | <<0.5 | – | (74%) | > 1 | (117%) | > 1 | (74%) | > 2 | (225%) | > 1 | COC1(C(=O)O)CC(O)C(O)C(C(O)C(O)CO)O1 (stereo not drawn) [Methyl-α-ketodesoxy-nonulsonic acid] | – | – | – |
| 0.8 | 0.6 | 1.6 | – | 1.37 | 1.1 | 4.25 | 1.3 | 2.77 | – | – | – | – | – | – | – | – | CS[C@]1(C(=O)O)C[C@H](O)[C@@H](NC(C)=O)[C@H]([C@H](O)[C@H](O)CO)O1 [Methylthio-α-Neu5Ac] | – | – | – |
| <<0.5 | – | 28 | – | 0.077 | 48 | 0.1 | 41 | 0.106 | (121%) | > 1.5 | – | – | – | – | – | – | Methyl-α-9-N-fluoresceinyl-amino-9-desoxy-Neu5Ac | – | – | – |
